One data set relates to patients with migraine. Put plainly: GLADIATOR open-label Phase 3 study, long-term intermittent lasmiditan; MIDAS interim analysis. It is filed as in vivo, human. The following applies: for change in MIDAS migraine disability, headache days and headache pain/severity over time: lasmiditan 100 mg or 200 mg, up to 12 months. The protocol:
The placebo-controlled Phase 3 studies SAMURAI (NCT02439320) and SPARTAN (NCT02605174) evaluated lasmiditan 50 mg [SPARTAN only], 100 mg and 200 mg. […] GLADIATOR (NCT02565186) is a prospective randomized open-label Phase 3 study to evaluate long-term intermittent use of lasmiditan (100 mg or 200 mg) for acute treatment of migraine. An interim analysis of the effects of lasmiditan on migraine disability assessed with the MIDAS scale in GLADIATOR is described below, and has provided surprising and unexpected evidence of persistent beneficial effects in migraine patients.
Patients who completed SAMURAI or SPARTAN were offered participation in GLADIATOR with randomization to lasmiditan 100 mg or lasmiditan 200 mg which represents an uncontrolled, open-label study. […] This interim analysis includes patients with MIDAS score data at baseline of GLADIATOR and post-baseline assessments. The analysis presented is based on the MIDAS questionnaire administered at baseline and at months 3, 6, 9 and 12. An additional analysis was also conducted in the subgroup of patients who completed 12 months. Changes were modelled using a mixed model repeated measures analysis MIDAS measures lost time due to migraine in days over 3 months. Domains included are activity limitations at work, household work or family, social and leisure activity.
Key inclusion criteria were patients who were eligible for SAMURAI or SPARTAN and had at least moderate migraine disability (MIDAS score ≥11). Patients were randomized 1:1 for acute treatment of migraine with either lasmiditan 100 mg for up to 12 months, or lasmiditan 200 mg for up to 12 months. Patients used lasmiditan as the first treatment for each new migraine attack (≤4 hours of Migraine pain onset). […] Assessments of safety and efficacy were conducted, including MIDAS questionnaires at baseline and months 3, 6, 9 and 12. MIDAS Questionnaire (See for example Stewart et al., Neurology 1999; 53:988-94, Stewart et al., Neurology 2001; 56: S20-8) The sum of Questions 1-5 below represents the Total MIDAS score. • 1. […]

The nature of data set [1]: Unbound plasma and brain levels of lasmiditan in rats from dural PPE studies. The class given is in vivo, Sprague-Dawley rats. The following applies: rat; for concentration at 1 h / concentration at 24 h: male, Sprague-Dawley; for concentration at 1 h: 1 hr post-dose; for concentration at 24 h: 24 hrs post-dose. The protocol:
Lasmiditan-hemisuccinate is dissolved in sterile water. All doses of lasmiditan are reported as free base equivalent doses, accounting for the weight of the salt. Envigo Sprague-Dawley, Sprague-Dawley male rats (250-350 grams, n=4/group) are fasted overnight prior to dosing. The animals are orally gavaged (2 mL/kg dose volume) with test compound or vehicle one hour prior to stimulation time and returned to their cages with only water available. Approximately 50 minutes post-dosing, the rats are anesthetized with Nembutal (65 mg/kg, ip.) and implanted with stainless steel stimulating electrodes (Rhodes Medical Systems, Inc.) to a depth of 9.2 mm. from the dura. The femoral vein is exposed and fluorescein isothiocyanate-labeled bovine serum albumin (FITC-BSA) (20 mg/kg, iv.), is injected into the femoral vein 2 minutes prior to stimulation. The FITC-BSA functions as a marker for protein extravasation. The left trigeminal ganglion is stimulated for 5 minutes at a current intensity of 1.0 mA (5 Hz, 5 msec pulse duration) with a Model S48 Grass Instrument Stimulator with PSIU6 photoelectric isolation unit (Grass-Telefactor). Five minutes following stimulation, a blood sample is collected by cardiac puncture and the rats are sacrificed by exsanguination with 40 ml of saline. One milliliter of blood is collected and placed in a 1.5 ml EDTA coated tube (Fisher Cat. #540734) on ice. Plasma is separated via centrifugation at 10,000 rpm (941 g) for thirty minutes at 4° C. The top of the skull is removed to collect the brain and dural membranes. The brain and plasma samples are frozen at −80° C. until thawed for compound quantification. The membrane samples are removed from both hemispheres, rinsed with water, and spread flat on microscope slides. The slides are dried for 15 minutes on a slide warmer, then the tissues are cover-slipped with a 70% glycerol/water solution. A fluorescence microscope (Zeiss) equipped with a grating monochromator and a spectrophotometer is used to quantify the amount of FITC-BSA dye in each dural sample. The extravasation induced by electrical stimulation of the trigeminal ganglion is an ipsilateral effect (i.e. occurs only on the side of the dura in which the trigeminal ganglion was stimulated). This allows the other (unstimulated) half of the dura to be used as the control. The ratio of extravasation in the dura from the stimulated side versus the unstimulated side is calculated and reported as the extravasation ratio for each animal. The mean extravasation ratio and standard error of the mean (SEM) are calculated for each treatment group. Controls yield a ratio of approximately 1.8. In contrast, a compound which effectively prevents the extravasation in the dura from the stimulated side would have a ratio of approximately 1. The resulting data are analyzed with a one-way ANOVA followed by Dunnett's post hoc to determine statistical significance (p<0.05). Levels of compound in the plasma and brain samples for each animal are analyzed according to methods known to the skilled artisan. Evaluation of Compound Potency 24 or 48 Hours Following Oral Administration Envigo Sprague-Dawley, Sprague-Dawley male rats (250-350 grams, n=4/group) are fasted overnight prior to dosing for the duration p.o. study. The animals are orally gavaged with test compound or vehicle and returned to their cages with only water available; with food returned 1 hour later. Either 24 or 48 post-dose, the animals are anesthetized with Nembutal (65 mg/kg, ip.) and placed in a stereotaxic frame (David Kopf Instruments). The remainder of the protocol is identical to the method immediately above for Evaluation of Compound Potency 1 Hour Following Oral Administration. […] However, the unbound plasma and brain concentrations measured 24 hours following the administration of the 10 mg/kg dose, are not different from the exposures associated with the non-efficacious 0.1 mg/kg dose at one hour. […]

The mark [2] stands for this setting: brain, 10 mg/kg po, read-out: Unbound Brain Cone (mean ± SD; n = 4).
The mark [3] stands for this setting: plasma, 10 mg/kg po, read-out: Unbound Plasma Cone (mean ± SD; n = 4).
Where [4] appears, read: 10 mg/kg po, 48 hrs post-dose, BQL = below quantitation level.

Entries after “also recorded” stand apart in the source; their conditions may differ. Read-outs that look alike come from different tables or passages of the source.

As for `CN1CCC(C(=O)c2cccc(NC(=O)c3c(F)cc(F)cc3F)n2)CC1` [Lasmiditan, 2,4,6-trifluoro-N-[6-(1-methyl-piperidin-4-ylcarbonyl)-pyridin-2-yl]-benzamide], in the data set with patients with migraine (GLADIATOR MIDAS outcomes), the “difference between lasmiditan 100 mg and 200 mg doses, any outcome” value is given as “no significant differences”. For the same compound, the “change in MIDAS migraine disability, headache days and headache pain/severity over time” value is on record as “decreases over time” in the data set on patients with migraine and “large, clinically meaningful improvement; also recorded: a decrease over the 12-month treatment period” in the data set on patients with migraine (listed as lasmiditan). The concentration at 1 h was 2 ± 0.1 nM in data set [1] (brain, 0.1 mg/kg po, read-out: Unbound Brain Cone (mean ± SD; n = 4)); 16.6 ± 3.6 nM in data set [1] (brain, 1 mg/kg po, read-out: Unbound Brain Cone (mean ± SD; n = 4)); 242 ± 95 nM in data set [1] (setting [2]); 6 ± 1.9 nM in data set [1] (plasma, 0.1 mg/kg po, read-out: Unbound Plasma Cone (mean ± SD; n = 4)); 67 ± 19.8 nM in data set [1] (plasma, 1 mg/kg po, read-out: Unbound Plasma Cone (mean ± SD; n = 4)); 767 ± 254 nM in data set [1] (setting [3]). In addition, the concentration at 24 h was 2.1 ± 0.9 nM in data set [1] (setting [2]) and 6.2 ± 2.5 nM in data set [1] (setting [3]). The “Unbound Brain Cone (mean ± SD; n = 4)” value in data set [1] (setting [4]) is listed as “BQL”. Further, the “Unbound Plasma Cone (mean ± SD; n = 4)” value in data set [1] (setting [4]) is “BQL”.

The values are drawn from patent US12138254B2, “Chronic nightly dosing of lasmiditan for migraine prevention” (Eli Lilly and Company, priority 2018, dated 2024).
